Results published in PMC5241706, “Biochemical and Structural Characterization of Selective Allosteric Inhibitors of the Plasmodium falciparum Drug Target, Prolyl-tRNA-synthetase” (ACS Infectious Diseases, 2016).
Where “and” joins values, the source holds several entries; their conditions need not be identical. Equal entries are not always repeated.

Columns and labels:
PfProRS [1] = biological target: T1, PfProRS (Plasmodium falciparum, UniProt Q8I5R7); experiment: luciferase ATP depletion assay, HTS format; type: biochemical
T1 construct: B2, AA7–746 (minus 6 amino acids, or 99% of the ORF); made in house; host or cells: E. coli BL21(DE3)R3 Rosetta Oxford
T1 sequence (Q8I5R7 7-746): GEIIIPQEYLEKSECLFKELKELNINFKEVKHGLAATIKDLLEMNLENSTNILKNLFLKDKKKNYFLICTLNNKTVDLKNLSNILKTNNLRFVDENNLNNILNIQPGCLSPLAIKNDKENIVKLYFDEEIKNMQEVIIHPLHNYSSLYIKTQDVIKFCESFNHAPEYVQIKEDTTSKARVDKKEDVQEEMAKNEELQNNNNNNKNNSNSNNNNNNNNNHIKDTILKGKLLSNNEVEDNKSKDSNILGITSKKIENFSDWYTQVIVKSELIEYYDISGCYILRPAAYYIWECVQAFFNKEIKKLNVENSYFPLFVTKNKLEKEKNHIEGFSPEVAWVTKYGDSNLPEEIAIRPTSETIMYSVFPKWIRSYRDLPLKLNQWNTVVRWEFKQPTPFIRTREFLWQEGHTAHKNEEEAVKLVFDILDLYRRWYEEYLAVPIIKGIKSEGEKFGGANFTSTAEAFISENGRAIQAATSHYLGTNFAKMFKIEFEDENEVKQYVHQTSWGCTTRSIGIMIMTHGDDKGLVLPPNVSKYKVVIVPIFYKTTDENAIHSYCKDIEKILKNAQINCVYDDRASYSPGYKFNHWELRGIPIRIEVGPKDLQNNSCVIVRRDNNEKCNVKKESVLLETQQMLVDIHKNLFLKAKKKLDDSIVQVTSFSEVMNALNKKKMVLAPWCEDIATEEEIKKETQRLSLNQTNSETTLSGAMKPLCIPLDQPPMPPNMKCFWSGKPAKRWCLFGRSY

HsProRS = biological target: T2, HsProRS (Homo sapiens, UniProt P07814); experiment: luciferase ATP depletion assay, counter-screen; type: biochemical
T2 construct: made in house
T2 sequence (P07814 1007-1512 limits assumed): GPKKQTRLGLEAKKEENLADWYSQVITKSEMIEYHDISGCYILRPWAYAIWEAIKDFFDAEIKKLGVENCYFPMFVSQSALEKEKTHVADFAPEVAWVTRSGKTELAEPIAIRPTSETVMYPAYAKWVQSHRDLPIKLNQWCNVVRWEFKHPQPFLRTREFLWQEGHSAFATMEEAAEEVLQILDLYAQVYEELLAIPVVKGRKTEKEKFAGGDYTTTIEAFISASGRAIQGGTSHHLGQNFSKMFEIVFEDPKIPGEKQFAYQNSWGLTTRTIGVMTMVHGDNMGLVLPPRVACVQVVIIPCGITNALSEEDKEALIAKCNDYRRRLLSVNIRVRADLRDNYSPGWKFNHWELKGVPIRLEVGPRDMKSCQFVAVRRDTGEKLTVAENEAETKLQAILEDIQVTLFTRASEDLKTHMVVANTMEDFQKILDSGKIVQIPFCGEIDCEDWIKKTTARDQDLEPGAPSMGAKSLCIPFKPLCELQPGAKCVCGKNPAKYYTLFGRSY

PfProRS [2] = biological target: T1, PfProRS; experiment: biochemical; type: biochemical; settings: read-out: Pf ProRS IC50
[3] = tested on: Plasmodium falciparum strain 3D7; experiment: Plasmodium falciparum growth inhibition, SYBR green fluorescence; type: cell-based; settings: 3D7, growth inhibition, read-out: Pf (3D7) EC50
HsHEPG2 = experiment: mammalian cell line selectivity; type: cell-based; settings: Homo sapiens; data not shown
Excerpt: (§1) […]. In addition to its activity and selectivity, it has good physicochemical and DMPK properties. […].

experimental CHI-logD = type: physicochemical; settings: HPLC retention (chromatographic hydrophobicity index, CHI)
Excerpt: as §1

[4] = kinetic aqueous solubility, laser nephelometry; type: physicochemical; settings: MilliQ water with 1.0% DMSO, kinetic from dmso stock
Description: (§2) 485nm (Plouffe et al., 2008).
(§3) described (Vedadi et al., 2006).
(§4) Orange Dye (Life Technologies S-6650).
(§5) In vitro Cell Assay Data Analysis
(§6) (Patterson et al., 2013). […] An
(§7) Triplicate aliquots were transferred to a flat
(§8) Intrinsic Clearance (CLi) experiments
(§9) Test compound (0.5 µM) was
(§10) phosphate buffer, pH 7.4).
(§11) The rate of intrinsic clearance (CLi)
(§12) 52.5mg protein per g liver.
(§13) Ion homeostasis in the malaria parasite

[5] = intrinsic clearance in liver microsomes; type: in vitro ADME
Description: as §2, §3, §4, §5, §6, §7, §8, §9, §10, §11, §12, §13

PfProRS [6] = biological target: T1, PfProRS; experiment: ATP consumption assay with proline or ATP varied (competition); type: biochemical
[7] = tested on: isolated 3D7 trophozoites (pHi); experiment: pH assay, BCECF-loaded isolated trophozoites; settings: TCMDC-124506 5 μM; KAE609 50 nM
[8] = read-out: Percentage inhibition Pf ProRS

Cn1nc(C(F)(F)F)c(-c2ccc(F)cc2)c1NC(=O)Nc1ccc(F)cc1 [TCMDC-124506]
IC50 (PfProRS [1]; 75 nM ProRS, 60 μM proline, 6 μM ATP, 400 μg/mL yeast tRNA, 2 h 37 °C, read-out: PfProRS IC50): 74 µM and 73 µM
inhibition at 2.5 µM (PfProRS [1]; [8]): -0.36%
inhibition at 4.9 µM (PfProRS [1]; [8]): -2.4%
inhibition at 9.8 µM (PfProRS [1]; [8]): 3.73%
inhibition at 19.5 µM (PfProRS [1]; [8]): 10.8%
inhibition at 39 µM (PfProRS [1]; [8]): 30.9%
inhibition at 78 µM (PfProRS [1]; [8]): 55.8%
inhibition at 156 µM (PfProRS [1]; [8]): 79.5%
inhibition at 313 µM (PfProRS [1]; [8]): 80.4%
inhibition at 625 µM (PfProRS [1]; [8]): 96.2%
inhibition at 1250 µM (PfProRS [1]; [8]): 97%
IC50 (HsProRS): > 700 µM
inhibition at 2.5 µM (HsProRS; at 2.5 μM, read-out: Percentage inhibition Hs ProRS): 0.3%
inhibition at 4.9 µM (HsProRS; at 4.9 μM, read-out: Percentage inhibition Hs ProRS): 0.28%
inhibition at 9.8 µM (HsProRS; at 9.8 μM, read-out: Percentage inhibition Hs ProRS): 0.01%
inhibition at 19.5 µM (HsProRS; at 19.5 μM, read-out: Percentage inhibition Hs ProRS): -0.08%
inhibition at 39 µM (HsProRS; at 39 μM, read-out: Percentage inhibition Hs ProRS): 0.26%
inhibition at 78 µM (HsProRS; at 78 μM, read-out: Percentage inhibition Hs ProRS): 0.84%
inhibition at 156 µM (HsProRS; at 156 μM, read-out: Percentage inhibition Hs ProRS): 0.82%
inhibition at 313 µM (HsProRS; at 313 μM, read-out: Percentage inhibition Hs ProRS): 0.26%
inhibition at 625 µM (HsProRS; at 625 μM, read-out: Percentage inhibition Hs ProRS): 0.12%
inhibition at 1250 µM (HsProRS; at 1250 μM, read-out: Percentage inhibition Hs ProRS): 0.04%
inhibitory activity for HsProRS (HsProRS; up to the limit of solubility (>1 mM)): < 40%
IC50 (PfProRS [2]): 5 µM
EC50 [3]: 0.6 µM
EC50 (HsHEPG2): > 50 µM
chromatographic logD (experimental CHI-logD): 2.9
solubility kinetic [4]: > 250 µM
mouse microsomal clearance (Cli) [5]: 1.6 mL/min/g
mode of inhibition (PfProRS [6]): competitive allosteric inhibitor
IC50 (PfProRS [6]; IC50 of TCMDC-124506 as a function of proline, Pro=30 M): 88 µM
IC50 (PfProRS [6]; IC50 of TCMDC-124506 as a function of proline, Pro=60): 110 µM
IC50 (PfProRS [6]; IC50 of TCMDC-124506 as a function of proline, Pro=120): 128 µM
IC50 (PfProRS [6]; IC50 of TCMDC-124506 as a function of proline, Pro=240): 151 µM
Ki (PfProRS [6]; Ki (Cheng-Prusoff, competition with ATP), intercept of IC50 vs [ATP]): 51 ± 1.6 µM
Ki (PfProRS [6]; Ki (Cheng-Prusoff, competition with proline), intercept of IC50 vs [Proline]): 80 ± 4.9 µM
IC50 (PfProRS [6]; TCMDC-124506 IC50 as a function of ATP, ATP=3 M): 74.4 µM
IC50 (PfProRS [6]; TCMDC-124506 IC50 as a function of ATP, ATP=6): 103 µM
IC50 (PfProRS [6]; TCMDC-124506 IC50 as a function of ATP, ATP=12): 145 µM
effect on acidification after concanamycin A (100 nM) [7]: a reduction in the degree of acidification
effect on parasite cytosolic pH (pHi) [7]: caused an increase in pHi
